From patent US10899753B2, “Inhibiting agents for Bruton's tyrosine kinase” (BIOGEN MA INC., priority 2018, dated 2021)
Blank lines part the entries; values can stand above or below the compound they belong to.

Experiments:
BTK [1] = biological target: T1, BTK (Homo sapiens (Human), UniProt Q06187); assay: In Vitro PD Assay in Human Whole Blood (pBTK assay); format: cell-based; details: human heparinized whole blood, 37° C. for 30 min, total BTK capture and phosphotyrosine detection (ECL)
Experimental: In Vitro PD Assay in Human Whole Blood
Human heparinized venous blood was purchased from Bioreclamation, Inc. or SeraCare Life Sciences and shipped overnight. Whole blood was aliquoted into 96-well plate and “spiked” with serial dilutions of test compound in DMSO or with DMSO without drug. The final concentration of DMSO in all wells was 0.1%. The plate was incubated at 37° C. for 30 min. Lysis buffer containing protease and phosphatase inhibitors was added to the drug-containing samples and one of the DMSO-only samples (+PPi, high control), while lysis buffer containing protease inhibitors was added to the other DMSO-only samples (−PPi, low control). All of the lysed whole blood samples were subjected to the total BTK capture and phosphotyrosine detection method described in US20160311802, incorporated herein by reference.

BTK [2] = biological target: T1, BTK; assay: In Vitro BTK Kinase Assay: BTK-POLYGAT-LS ASSAY; format: biochemical; details: fluorescein-labeled polyGAT peptide 100 nM, BTK enzyme 0.25 nM, 30 minutes, TRF
Experimental: In Vitro BTK Kinase Assay: BTK-POLYGAT-LS ASSAY
The purpose of the BTK in vitro assay is to determine compound potency against BTK through the measurement of IC50. […] For a typical assay, a […] aliquot of a ATP/peptide master mix (final concentration; ATP […], polyGAT 100 nM) in kinase buffer (10 mM Tris-HCl pH 7.5, 10 mM MgCl2, 200 μM Na3PO4, 5 mM DTT, 0.01% Triton X-100, and 0.2 mg/ml casein) is added to each well. […] The assay is incubated for 30 minutes before being stopped with 28 μL of a 50 mM EDTA solution. […] The plate is covered and incubated for 45 minutes at room temperature. Time resolved fluorescence (TRF) on Molecular Devices M5 (332 nm excitation; 488 nm emission; 518 nm fluorescein emission) is measured.

T1 sequence (Q06187 whole entry): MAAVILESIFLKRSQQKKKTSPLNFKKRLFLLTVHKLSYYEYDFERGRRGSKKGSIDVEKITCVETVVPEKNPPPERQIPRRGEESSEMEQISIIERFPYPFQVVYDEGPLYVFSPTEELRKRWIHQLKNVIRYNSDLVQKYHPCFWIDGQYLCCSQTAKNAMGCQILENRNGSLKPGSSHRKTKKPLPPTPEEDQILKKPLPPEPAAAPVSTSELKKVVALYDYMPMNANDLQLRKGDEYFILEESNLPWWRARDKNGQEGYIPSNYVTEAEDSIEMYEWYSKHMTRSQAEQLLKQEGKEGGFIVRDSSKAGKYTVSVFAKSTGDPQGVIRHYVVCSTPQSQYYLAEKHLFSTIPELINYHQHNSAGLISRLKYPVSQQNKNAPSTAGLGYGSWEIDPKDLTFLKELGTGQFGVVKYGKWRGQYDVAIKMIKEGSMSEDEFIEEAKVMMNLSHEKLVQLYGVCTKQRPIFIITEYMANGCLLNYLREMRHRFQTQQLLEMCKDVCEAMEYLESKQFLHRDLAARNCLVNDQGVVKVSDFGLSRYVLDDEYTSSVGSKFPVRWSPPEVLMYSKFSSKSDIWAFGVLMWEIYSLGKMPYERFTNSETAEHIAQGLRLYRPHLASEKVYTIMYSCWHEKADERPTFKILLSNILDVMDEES

SMILES: Cc1cc(-c2ncnc(Nc3cnn(C)c3)n2)ccc1CNC(=O)c1nc(C(C)(C)C)no1 [Compound 12, 3-(tert-butyl)-N-(2-methyl-4-(4-((1-methyl-1H-pyrazol-4-yl)amino)-1,3,5-triazin-2-yl)benzyl)-1,2,4-oxadiazole-5-carboxamide]
IC50 (BTK [1]): 100 to 500 nM
IC50 (BTK [2]): < 1 nM

SMILES: C[C@@H](NC(=O)c1nc(C(C)(C)C)no1)c1ccc(-c2ncnc(Nc3ccn(C)n3)n2)c(F)c1Cl [Compound 102, (R)-3-(tert-butyl)-N-(1-(2-chloro-3-fluoro-4-(4-((1-methyl-1H-pyrazol-3-yl)amino)-1,3,5-triazin-2-yl)phenyl)ethyl)-1,2,4-oxadiazole-5-carboxamide]
IC50 (BTK [1]): 500 to 10000 nM
IC50 (BTK [2]): < 1 nM

IC50 (BTK [1]): < 100 nM
SMILES: C[C@@H](NC(=O)c1nc(C(C)(C)C)no1)c1ccc(-c2ncnc(Nc3cnn(C)c3)n2)c(F)c1Cl [Compound 70, (R)-3-(tert-butyl)-N-(1-(2-chloro-3-fluoro-4-(4-((1-methyl-1H-pyrazol-4-yl)amino)-1,3,5-triazin-2-yl)phenyl)ethyl)-1,2,4-oxadiazole-5-carboxamide]

SMILES: Cn1ccc(Nc2ncnc(-c3ccc(CNC(=O)c4noc(C(C)(C)C)n4)c(CC(F)F)c3)n2)n1 [Compound 67, 5-(tert-butyl)-N-(2-(2,2-difluoroethyl)-4-(4-((1-methyl-1H-pyrazol-3-yl)amino)-1,3,5-triazin-2-yl)benzyl)-1,2,4-oxadiazole-3-carboxamide]
IC50 (BTK [2]): 1 to 10 nM

SMILES: Cn1cc(Nc2ncnc(-c3ccc(CNC(=O)c4noc(C(C)(C)C)n4)c(Cl)c3F)n2)cn1 [Compound 28, 5-(tert-butyl)-N-(2-chloro-3-fluoro-4-(4-((1-methyl-1H-pyrazol-4-yl)amino)-1,3,5-triazin-2-yl)benzyl)-1,2,4-oxadiazole-3-carboxamide]
IC50 (BTK [1]): < 100 nM
IC50 (BTK [2]): < 1 nM

SMILES: Cn1ccc(Nc2ncnc(-c3ccc4c(c3F)CCCC[C@H]4NC(=O)c3nc(C(C)(C)C)no3)n2)n1 [Compound 89, (R)-3-(tert-butyl)-N-(1-fluoro-2-(4-((1-methyl-1H-pyrazol-3-yl)amino)-1,3,5-triazin-2-yl)-6,7,8,9-tetrahydro-5H-benzo[7]annulen-5-yl)-1,2,4-oxadiazole-5-carboxamide]
IC50 (BTK [1]): < 100 nM
IC50 (BTK [2]): < 1 nM

SMILES: Cn1ccc(Nc2ncnc(-c3ccc(CNC(=O)c4noc(C(C)(C)C)n4)c(C(F)(F)F)c3F)n2)n1 [Compound 19, 5-(tert-butyl)-N-(3-fluoro-4-(4-((1-methyl-1H-pyrazol-3-yl)amino)-1,3,5-triazin-2-yl)-2-(trifluoromethyl)benzyl)-1,2,4-oxadiazole-3-carboxamide]
IC50 (BTK [2]): 1 to 10 nM

IC50 (BTK [1]): < 100 nM
SMILES: Cn1cc(Nc2ncnc(-c3ccc4c(c3)CN(C3COC3)CC[C@H]4NC(=O)c3cn(C(C)(C)C)nn3)n2)cn1 [Compound 24, 1-tert-butyl-N-[(5R)-8-[4-[(1-methylpyrazol-4-yl)amino]-1,3,5-triazin-2-yl]-2-(oxetan-3-yl)-1,3,4,5-tetrahydro-2-benzazepin-5-yl]triazole-4-carboxamide]

SMILES: Cc1cc(-c2ncnc(Nc3cnn(C)c3)n2)ccc1CNC(=O)c1noc(C2(CF)CC2)n1 [Compound 49, 5-(1-(fluoromethyl)cyclopropyl)-N-(2-methyl-4-(4-((1-methyl-1H-pyrazol-4-yl)amino)-1,3,5-triazin-2-yl)benzyl)-1,2,4-oxadiazole-3-carboxamide]
IC50 (BTK [1]): 100 to 500 nM
IC50 (BTK [2]): < 1 nM

SMILES: Cc1cc(-c2ncnc(Nc3cnn(C)c3)n2)c(F)cc1CNC(=O)c1cc(C(C)(C)C)on1 [Compound 64, 5-(tert-butyl)-N-(5-fluoro-2-methyl-4-(4-((1-methyl-1H-pyrazol-4-yl)amino)-1,3,5-triazin-2-yl)benzyl)isoxazole-3-carboxamide]
IC50 (BTK [1]): 500 to 10000 nM
IC50 (BTK [2]): < 1 nM

SMILES: Cc1cc(-c2ncnc(Nc3cnn(C)c3)n2)ccc1CNC(=O)c1cnc(C(C)(C)C)o1 [Compound 99, 2-(tert-butyl)-N-(2-methyl-4-(4-((1-methyl-1H-pyrazol-4-yl)amino)-1,3,5-triazin-2-yl)benzyl)oxazole-5-carboxamide]
IC50 (BTK [1]): 500 to 10000 nM
IC50 (BTK [2]): < 1 nM

SMILES: C[C@@H](NC(=O)c1nc(C(C)(C)C)no1)c1ccc(-c2ncnc(Nc3ccn(C)n3)n2)c(F)c1C(F)F [Compound 83, (R)-3-(tert-butyl)-N-(1-(2-(difluoromethyl)-3-fluoro-4-(4-((1-methyl-1H-pyrazol-3-yl)amino)-1,3,5-triazin-2-yl)phenyl)ethyl)-1,2,4-oxadiazole-5-carboxamide]
IC50 (BTK [2]): 1 to 10 nM

SMILES: Cc1cc(-c2ncnc(Nc3cnn(C)c3)n2)ccc1CNC(=O)c1noc(C2(C)CC2)n1 [Compound 40, N-(2-methyl-4-(4-((1-methyl-1H-pyrazol-4-yl)amino)-1,3,5-triazin-2-yl)benzyl)-5-(1-methylcyclopropyl)-1,2,4-oxadiazole-3-carboxamide]
IC50 (BTK [1]): 100 to 500 nM
IC50 (BTK [2]): < 1 nM

SMILES: Cc1c(CNC(=O)c2cn(C(C)(C)C)nn2)ccc(-c2ncnc(Nc3cnn(C)c3)n2)c1F [Compound 105, 1-(tert-butyl)-N-(3-fluoro-2-methyl-4-(4-((1-methyl-1H-pyrazol-4-yl)amino)-1,3,5-triazin-2-yl)benzyl)-1H-1,2,3-triazole-4-carboxamide]
IC50 (BTK [1]): 100 to 500 nM
IC50 (BTK [2]): < 1 nM

SMILES: Cc1cc(-c2ncnc(Nc3cnn(C)c3)n2)ccc1CNC(=O)c1cn(C(C)(C)C)nn1 [Compound 109, 1-(tert-butyl)-N-(2-methyl-4-(4-((1-methyl-1H-pyrazol-4-yl)amino)-1,3,5-triazin-2-yl)benzyl)-1H-1,2,3-triazole-4-carboxamide]
IC50 (BTK [1]): 100 to 500 nM
IC50 (BTK [2]): 1 to 10 nM

SMILES: Cc1c(CNC(=O)c2noc(C3(C)CC3)n2)ccc(-c2ncnc(Nc3cnn(C)c3)n2)c1F [Compound 32, N-(3-fluoro-2-methyl-4-(4-((1-methyl-1H-pyrazol-4-yl)amino)-1,3,5-triazin-2-yl)benzyl)-5-(1-methylcyclopropyl)-1,2,4-oxadiazole-3-carboxamide]
IC50 (BTK [1]): < 100 nM
IC50 (BTK [2]): < 1 nM

SMILES: Cc1cc(-c2ncnc(Nc3ccn(C)n3)n2)ccc1CNC(=O)c1noc(C(C)(C)CF)n1 [Compound 44, 5-(1-fluoro-2-methylpropan-2-yl)-N-(2-methyl-4-(4-((1-methyl-1H-pyrazol-3-yl)amino)-1,3,5-triazin-2-yl)benzyl)-1,2,4-oxadiazole-3-carboxamide]
IC50 (BTK [1]): 100 to 500 nM
IC50 (BTK [2]): 1 to 10 nM

SMILES: Cn1cc(Nc2ncnc(-c3ccc(CNC(=O)c4nc(C(C)(C)C)no4)c(C(F)(F)F)c3)n2)cn1 [Compound 18, 3-(tert-butyl)-N-(4-(4-((1-methyl-1H-pyrazol-4-yl)amino)-1,3,5-triazin-2-yl)-2-(trifluoromethyl)benzyl)-1,2,4-oxadiazole-5-carboxamide]
IC50 (BTK [2]): < 1 nM

SMILES: Cn1ccc(Nc2ncnc(-c3ccc(CNC(=O)c4nc(C(C)(C)C)no4)c(C(F)(F)F)c3)n2)n1 [Compound 8, 3-(tert-butyl)-N-(4-(4-((1-methyl-1H-pyrazol-3-yl)amino)-1,3,5-triazin-2-yl)-2-(trifluoromethyl)benzyl)-1,2,4-oxadiazole-5-carboxamide]
IC50 (BTK [2]): 1 to 10 nM

IC50 (BTK [1]): 100 to 500 nM
SMILES: Cc1cc(-c2ncnc(Nc3cnn(C)c3)n2)ccc1CNC(=O)c1cc(C(C)(C)C)on1 [Compound 38]

SMILES: Cc1cc(-c2ncnc(Nc3cnn(C)c3)n2)ccc1CNC(=O)c1nnc(C(C)(C)C)o1 [Compound 110, 5-(tert-butyl)-N-(2-methyl-4-(4-((1-methyl-1H-pyrazol-4-yl)amino)-1,3,5-triazin-2-yl)benzyl)-1,3,4-oxadiazole-2-carboxamide]
IC50 (BTK [2]): 1 to 10 nM

SMILES: Cc1c(CNC(=O)c2nc(C(C)(C)C)no2)ccc(-c2ncnc(Nc3ccn(C)n3)n2)c1F [Compound 10, 3-(tert-butyl)-N-(3-fluoro-2-methyl-4-(4-((1-methyl-1H-pyrazol-3-yl)amino)-1,3,5-triazin-2-yl)benzyl)-1,2,4-oxadiazole-5-carboxamide]
IC50 (BTK [2]): < 1 nM

IC50 (BTK [1]): 500 to 10000 nM
SMILES: Cc1cc(-c2ncnc(Nc3cnn(C)c3)n2)ccc1CNC(=O)c1noc(C2[C@@H](C)[C@H]2C)n1 (stereo partly drawn) [Compound 41, 5-(2,3-cis-dimethylcyclopropyl)-N-(2-methyl-4-(4-((1-methyl-1H-pyrazol-4-yl)amino)-1,3,5-triazin-2-yl)benzyl)-1,2,4-oxadiazole-3-carboxamide]

IC50 (BTK [1]): < 100 nM
SMILES: Cn1ccc(Nc2ncnc(-c3ccc4c(c3)CN(CC(F)(F)F)CC[C@H]4NC(=O)c3noc(C(C)(C)C)n3)n2)n1 [Compound 25, 5-tert-butyl-N-[(5R)-8-[4-[(1-methylpyrazol-3-yl)amino]-1,3,5-triazin-2-yl]-2-(2,2,2-trifluoroethyl)-1,3,4,5-tetrahydro-2-benzazepin-5-yl]-1,2,4-oxadiazole-3-carboxamide]

SMILES: Cn1ccc(Nc2ncnc(-c3ccc(CNC(=O)c4noc(C(C)(C)C)n4)c(C(F)(F)F)c3)n2)n1 [Compound 7, 5-(tert-butyl)-N-(4-(4-((1-methyl-1H-pyrazol-3-yl)amino)-1,3,5-triazin-2-yl)-2-(trifluoromethyl)benzyl)-1,2,4-oxadiazole-3-carboxamide]
IC50 (BTK [2]): 1 to 10 nM
